What was measured:
[1] = Tolerability, physical health, hematology and blood chemistry in the NHP in vivo HSC gene therapy study; parameters: species or system rhesus macaques; settings: NHP #2, given through a gastric catheter over 5 days; day 3 after HDAd injection
Description: NHP #1 received a donor vector containing two payload modules: i) a transposon module for random integration into host cell genomes of a human γ-globin gene operably linked with a mini-β-globin LCR, together with an MGMT^P140K selection marker operably linked with an EF1α promoter, and ii) a CRISPR/Cas9 module for CRISPR/Cas9-mediated reactivation of endogenous rhesus γ-globin expression (FIG. 8B). This combination donor vector was co-injected with a support vector that expresses an activity-enhanced Sleeping Beauty transposase (SB100x) (HDAd-SB), activity of which mediates γ-globin gene addition by integration of the transposon into host cell genomes and triggers the destruction of the CRISPR/Cas9 module thus restricting the duration of the CRISPR/Cas9 system's expression and activity (FIG. 8B). […] The vector injected into NHP #3 was similar to the NHP #1 vector but encoded rhesus γ-globin instead of human γ-globin to minimize immune responses against transgene products in the NHP (FIG. 8D).
None of the three animals had detectable anti-vector antibodies at the time of enrollment. Unexpectedly, NHP #1 acquired antibodies during quarantine (titer 1:680). NHP #1 and #3 were monitored for 6 months. […] Despite this, a set of relevant data could be collected from this animal. […]

human MGMT^P140K = experiment: Anti-human MGMT^P140K immune responses under adaptive immunosuppression; format: in vivo, rhesus macaques; settings: fully immunocompetent animals
Description: Serum antibody (IgG and IgM) titers against recombinant human MGMT protein in NHP #3 (FIG. 18A) and NHP #1 (FIG. 18B).
To suppress adaptive immune responses, NHP #1 received daily tacrolimus/sirolimus/MMF. […] For NHP #3, it was therefore decided to administer only tacrolimus (SC) as this had been sufficient in myelo-ablated/-conditioned rhesus macaques.

IL-6 = experiment: Rhesus serum cytokine levels by cytometric bead array after IV HDAd5/35++ (IL-6); format: in vivo, rhesus macaques; settings: NHPs; measured by IL-6 and/or TNF levels
Description: FIGS. 12A-12E. […] (FIGS. 12A-12C) Serum IL-6. (FIGS. 12D, 12E) Serum TNFα.
FIG. 29. […] Serum IL-6 (pg/mL) levels are shown for NHP #4. […] Arrows indicate administration of adenoviral vector.
FIG. 31. […] Serum IL-6 (pg/mL) levels are shown for NHP #5. […] Arrows indicate administration of adenoviral vector.
Serum cytokines returned back to baseline by 24 hrs.

| Compound | outcome of overdose [1] | control of anti-human MGMT^P140K antibodies (and T-cell responses) (human MGMT^P140K) | innate immune response to HDAd5/35++ (IL-6) |
| --- | --- | --- | --- |
| C=CC[C@@H]1/C=C(\C)C[C@H](C)C[C@H](OC)[C@H]2O[C@@](O)(C(=O)C(=O)N3CCCC[C@H]3C(=O)O[C@H](/C(C)=C/[C@@H]3CC[C@@H](O)[C@H](OC)C3)[C@H](C)[C@@H](O)CC1=O)[C@H](C)C[C@@H]2OC [tacrolimus] | had to be euthanized | did not prevent | – |
| anakinra: engineered human IL-1 receptor antagonist (IL-1Ra), recombinant non-glycosylated protein, SEQ ID NO: 1 | – | – | potent agent for suppressing in vivo immune responses |

Source: patent publication US20230133243A1, “CONDITIONING REGIMENS FOR IN VIVO GENE THERAPY” (Fred Hutchinson Cancer Center, priority 2020, published 2023)
